According to PubChem BioAssay AID1918930 (Molecular Pharmacology Branch, DTP, NCI, 2023):

Tested on: 233499-124-R-J3-PDC complex spheroid viability, % test/control
Assay: Anticancer human tumor 233499-124-R-J3-PDC patient-derived colon adenocarcinoma cell line growth inhibition
Details: for IC50: curve of first compound; for viability, T/C: stronger effect = lower value
Excerpt: Multicellular complex tumor spheroid response to LSD1 Inhibitor Iadademstat in combination with a variety of drugs and investigational agents in selected tumor cell lines
The current study was undertaken to assess response to LSD1 inhibitors in combination with standard-of-care drugs and investigational agents in solid tumor complex spheroid models as well as in the K-562 leukemia. Complex spheroids include a stromal component modeled by human endothelial cells (HUVEC) and fibroblasts modeled by human mesenchymal stem cells (MSCs). The concentration ranges selected for each drug and investigational agent were based upon clinically achievable concentrations if the clinical Cmax of the agent was known.
Compounds. The drugs and investigational agents used in this study are listed on Table 1. All of the agents used, including staurosporine (NSC755774) and gemcitabine (NSC613327), were obtained from the Developmental Therapeutics Program, NCI. FDA-approved anticancer drugs are available from the NCI at http://dtp.nci.nih.gov/branches/dscb/oncology_drugset_explanation.html. Drugs and investigational agents were >95% pure by proton nuclear magnetic resonance (NMR) and liquid chromatography/mass spectrometry (LC/MS). Stock solutions were prepared at 400x in DMSO, stored at -70 degrees C, and diluted in fresh medium prior to their use. The final concentration of DMSO in cell culture wells never exceeded 0.25% (v/v). The FDA-approved anticancer drug set is available from the Developmental Therapeutics Program at https://dtp.cancer.gov/organization/dscb/obtaining/available_plates.htm. All drugs and investigational agents were tested over a range starting from a high concentration at or near the clinical Cmax and decreasing in half-log increments. If the clinical Cmax for an agent had not been determined, the highest concentration tested was 10 microM.
Cell Lines. The patient-derived cancer cell (PDC) lines: 292921-168-R-J2-PDC, K24384-001-R-PDC, and 521955-158-R2-J5-PDC pancreatic carcinomas, 556581-035-R-J1 ovarian carcinoma, 324938-238-R-J1-PDC, 855422-203-R-J1-PDC and 883617-216-R-J1-PDC urothelial bladder carcinomas, 743489-274-T-PDC renal cell carcinoma, 138582-R-J1 Merkel cell tumor, K60290-347-R-J1 and K57222-313-R-J1-PDC glioblastomas, 653999-131-R-J2-PDC, LG0703-F948-PDC, and 349418-098-R-PDC non-small cell lung carcinomas, 885512-296-R-J2-PDC, 171881-019-R-J1-PDC breast carcinomas and 186277-243-T-J2-PDC and 233499-124-R-J2-PDC colon carcinomas were obtained from the NCI Patient-Derived Models Repository (PDMR, https://pdmr.cancer.gov). The established cell lines NCI/ADR-RES (RRID:CVCL_14520 and OVCAR-5 (RRID:CVCL_1628) ovarian carcinomas, 786-O (RRID:CVCL_1051) and A498 (RRID:CVCL_A498) renal cell carcinoma, NCI-H211 (ATCC, cat. CRL-5824; RRID:CVCL_1529), NCI-H196 (ATCC, cat. CRL-5823, RRID:CVCL_1509), SW 1271 (ATCC, cat. CRL-2177, RRID:CVCL_1716) and NCI-H1876 (ATCC, cat. CRL-5902, RRID:CVCL_1503) small cell lung carcinomas, MDA-MB-231 (RRID:CVCL_0062) and MDA-MB-468 (RRID:CVCL_0419)breast carcinomas (10-12). Pooled donor human umbilical vein endothelial cells (HUVEC, Lonza, cat. CC-2519) and human mesenchymal stem cells (hMSC, Lonza, cat. PT-2501) were purchased from Lonza (Walkersville, MD).
Cell Culture. All cells were maintained in an incubator at 37 degrees C and 5% CO2 with 95% humidity. The PDC lines were cultured according to standard operating procedures established by the NCI PDMR (https://pdmr.cancer.gov). Briefly all PDCs were thawed and cultured in Matrigel-coated flasks prepared with a working solution of 1X Ham's F-12 nutrient mix, without supplementation (Invitrogen, Waltham, MA, cat. 11765054), 100 U/mL penicillin-streptomycin (Invitrogen, cat. 15140122), and 2.5% Matrigel (Corning Inc., Corning, NY, cat. 354248) for the first three passages. […]

[1] = second compound 0.1 µM, first compound 0.00949 µM
[2] = second compound 0.1 µM, first compound 0.03 µM
[3] = second compound 0.1 µM, first compound 0.0949 µM
[4] = second compound 0.1 µM, first compound 0.3 µM
[5] = second compound 0.1 µM, first compound 0.949 µM
[6] = second compound 0.1 µM, first compound 3 µM
[7] = second compound 0.316 µM, first compound 0.00949 µM
[8] = second compound 0.316 µM, first compound 0.03 µM
[9] = second compound 0.316 µM, first compound 0.0949 µM
[10] = second compound 0.316 µM, first compound 0.3 µM
[11] = second compound 0.316 µM, first compound 0.949 µM
[12] = second compound 0.316 µM, first compound 3 µM
[13] = second compound 1 µM, first compound 0.00949 µM
[14] = second compound 1 µM, first compound 0.03 µM
[15] = second compound 1 µM, first compound 0.0949 µM
[16] = second compound 1 µM, first compound 0.3 µM
[17] = second compound 1 µM, first compound 0.949 µM
[18] = second compound 1 µM, first compound 3 µM
[19] = second compound 3.16 µM, first compound 0.00949 µM
[20] = second compound 3.16 µM, first compound 0.03 µM
[21] = second compound 3.16 µM, first compound 0.0949 µM
[22] = second compound 3.16 µM, first compound 0.3 µM
[23] = second compound 3.16 µM, first compound 0.949 µM
[24] = second compound 3.16 µM, first compound 3 µM
[25] = second compound 10 µM, first compound 0.00949 µM
[26] = second compound 10 µM, first compound 0.03 µM
[27] = second compound 10 µM, first compound 0.0949 µM
[28] = second compound 10 µM, first compound 0.3 µM
[29] = second compound 10 µM, first compound 0.949 µM
[30] = second compound 10 µM, first compound 3 µM
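Note: spheroids exposed to agents for one week before readout.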

| SMILES | IC50 (second compound 0.1 µM) [nM] | IC50 (second compound 0.316 µM) [nM] | IC50 (second compound 1 µM) [nM] | IC50 (second compound 3.16 µM) [nM] | IC50 (second compound 10 µM) [nM] | viability, T/C [1] [%] | viability, T/C [2] [%] | viability, T/C [3] [%] | viability, T/C [4] [%] | viability, T/C [5] [%] | viability, T/C [6] [%] | viability, T/C [7] [%] | viability, T/C [8] [%] | viability, T/C [9] [%] | viability, T/C [10] [%] | viability, T/C [11] [%] | viability, T/C [12] [%] | viability, T/C [13] [%] | viability, T/C [14] [%] | viability, T/C [15] [%] | also measured |
| --- | --- | --- | --- | --- | --- | --- | --- | --- | --- | --- | --- | --- | --- | --- | --- | --- | --- | --- | --- | --- | --- |
| Nc1ccccc1NC(=O)c1ccc(CNC(=O)OCc2cccnc2)cc1 + NC1CC1c1ccc(-c2cccc(O)c2)cc1 | 453 | 374 | 246 | 387 | 338 | 80.8 | 106 | 100 | 71.4 | 11.4 | 3.1 | 101 | 106 | 93.1 | 59.9 | 11.3 | 1.9 | 101 | 98.8 | 75 | viability, T/C [16]: 47.7%; viability, T/C [17]: 9.92%; viability, T/C [18]: 2.32%; viability, T/C [19]: 84.4%; viability, T/C [20]: 76.1%; viability, T/C [21]: 79.8%; viability, T/C [22]: 60.5%; viability, T/C [23]: 12.9%; viability, T/C [24]: 2.93%; viability, T/C [25]: 71.4%; viability, T/C [26]: 79.6%; viability, T/C [27]: 78.2%; viability, T/C [28]: 54.6%; viability, T/C [29]: 8.25%; viability, T/C [30]: 1.7% |
| O=C(C=Cc1cccc(S(=O)(=O)Nc2ccccc2)c1)NO + NC1CC1c1ccc(-c2cccc(O)c2)cc1 | > 3000 | > 3000 | > 3000 | 908 | 759 | 108 | 134 | 118 | 113 | 14.4 | 89.1 | 126 | 112 | 124 | 115 | 10.3 | 97 | 95.2 | 109 | 113 | viability, T/C [16]: 113%; viability, T/C [17]: 9.43%; viability, T/C [18]: 91.8%; viability, T/C [19]: 86%; viability, T/C [20]: 104%; viability, T/C [21]: 93.8%; viability, T/C [22]: 108%; viability, T/C [23]: 7.54%; viability, T/C [24]: 88.7%; viability, T/C [25]: 86%; viability, T/C [26]: 91.9%; viability, T/C [27]: 90.9%; viability, T/C [28]: 109%; viability, T/C [29]: 5%; viability, T/C [30]: 73.7% |
